Values after ≈ are worked out from the molar mass of the structure shown. Values joined by “and” are separate entries in the source; they are usually repeats but may differ in a detail not shown here. Equal entries are not always repeated. Where two headings read alike, the source gives them in different places.
Legend:
M. tuberculosis H37Rv [1] = experiment: MIC90 against M. tuberculosis in liquid medium; format: cell-based, Mycobacterium tuberculosis; details: liquid medium 7H9-Tw-OADC, aerobic, 5 days, average ± SD of two independent experiments, read-out: MIC (MIC90, minimum concentration required to inhibit growth of M. tuberculosis by 90%)
HepG2 cells = experiment: Cytotoxicity against HepG2 cell line (CellTiter-Glo); format: cell-based; details: for Selectivity index (SI) = IC50/MIC90: HepG2 IC50 / M. tuberculosis MIC90; for IC50: Homo sapiens, 48 h, HepG2, 2 days incubation, read-out: IC50 (concentration required to reduce the viability of HepG2 cells by 50%)
M. tuberculosis H37Rv [2] = experiment: MIC99 on solid medium, M. tuberculosis; format: cell-based, Mycobacterium tuberculosis; details: solid medium 7H10-OADC, 4 weeks, lowest concentration yielding less than 1% growth
[3] = tested on: Mycobacterium smegmatis mc^2155; experiment: MIC99 on solid medium, M. smegmatis; format: cell-based; details: Mycolicibacterium smegmatis, 3–4 days
Escherichia coli DH5α = experiment: MIC99 on solid medium, E. coli; format: cell-based; details: 24 h, LB agar, 1 day
[4] = tested on: Pseudomonas aeruginosa HER1018 (PAO1); experiment: MIC99 on solid medium, P. aeruginosa; format: cell-based; details: PAO1, 24 h, tryptic soy agar, 1 day
[5] = tested on: Bacillus subtilis Marburg; experiment: MIC99 on solid medium, B. subtilis; format: cell-based; details: nutrient agar, 28 °C, 3–4 days
M. tuberculosis = experiment: Kill kinetics against M. tuberculosis in liquid culture; format: cell-based, Mycobacterium tuberculosis; details: for Kill of non-replicating M. tuberculosis: non-replicating bacteria (starvation conditions, PBS-Ty), over 14–21 days; for Activity against replicating M. tuberculosis (kill kinetics): replicating bacteria in 7H9-Tw-OADC, over 21 days
[6] = tested on: Saccharomyces cerevisiae Y187; experiment: MIC99 on solid medium, S. cerevisiae; details: YPD agar, 3–4 days
[7] = Turnover by mouse liver microsomes; format: in vitro ADME
Procedure: (§1) Based on in silico ADME predictions, three compounds were chosen to cover a range of cLogP values and were evaluated for their in vitro microsomal stability (Table 7). Rapid metabolism of compound 44 was observed, in rodent and human liver microsomes. The para-OCF3 analog 48 was also rapidly metabolized. The amide (49) had improved in vitro microsomal stability, with only 12% loss after 30 min in mouse microsomes, 22% loss in rat microsomes and 31% loss in human microsomes. The difference in stability for these three compounds is probably due to presence of more than one oxidatively-labile carbon in 44 and 48 (both have a two carbon linker), while 49 has only one such soft spot, although these have not been confirmed with metabolite identification studies.

[8] = Turnover by rat liver microsomes; format: in vitro ADME
Procedure: as §1

[9] = Turnover by human liver microsomes; format: in vitro ADME
Procedure: as §1

[10] = Fraction unbound in mouse plasma; format: in vitro ADME; details: read-out: Mouse Fu,pl (fraction unbound in plasma)
Text: Table 7 In vitro ADME and in vivo PK. | column: Mouse Fu,pl ^a

[11] = In vivo mouse PK after oral and intravenous administration; details: male mice, oral 10 mg/kg
Procedure: The oral exposure of the three compounds was evaluated in male mice by comparing exposures following oral (PO) and intravenous (IV) administration of 10 and 1 mg/kg doses of compounds, respectively (Table 7).

[12] = Mycobacterium tuberculosis, H37RV, 120 h
[13] = Mycobacterium tuberculosis, H37RV, 672 h

| Compound | MIC90 (M. tuberculosis H37Rv [1]; [12]) | Selectivity index (SI) = IC50/MIC90 (HepG2 cells) | IC50 (HepG2 cells) | melting point | other results |
| --- | --- | --- | --- | --- | --- |
| COc1ccc(CCNc2cc(-c3ccccn3)nc3ncnn23)cc1 [Compound 16, N-(4-Methoxyphenethyl)-5-(pyridin-2-yl)-[1,2,4]triazolo[1,5-a]pyrimidin-7-amine] | 0.83 ± 0.26 µM (≈ 0.288 µg/mL) | >130 | > 100 µM | 172 to 173 °C | MIC99 (M. tuberculosis H37Rv [2]; [13]): 13 µM (≈ 4.5 µg/mL); MIC99 (M. tuberculosis H37Rv [2]): < 20 µM; MIC99 [3]: > 100 µM; MIC99 (Escherichia coli DH5α): > 100 µM; MIC99 [4]: > 100 µM; MIC99 [5]: > 100 µM; Kill of non-replicating M. tuberculosis (M. tuberculosis): 2–3 log; Activity against replicating M. tuberculosis (kill kinetics) (M. tuberculosis): static activity; MIC99 S. cerevisiae [6]: >100 µM |
| Cc1ccc(CCNc2cc(-c3ccccc3)nc3ncnn23)cc1 [Compound 44, N-(4-Methylphenethyl)-5-phenyl-[1,2,4]triazolo[1,5-a]pyrimidin-7-amine] | 1.4 ± 0.5 µM (≈ 0.461 µg/mL) | 43 | 53 µM |  | % turnover by liver microsomes in 30 min, Mouse [7]: 98.2%; % turnover by liver microsomes in 30 min, Rat [8]: 99.2%; % turnover by liver microsomes in 30 min, Human [9]: 68.1%; fraction unbound [10]: 0.015; Cmax [11]: 604 nM; PO Tmax [11]: 0.25 h; PO t1/2 [11]: 1.05 h |
| Fc1ccc(CCNc2cc(-c3ccccc3)nc3ncnn23)cc1 [Compound 46, N-(4-Fluorophenethyl)-5-phenyl-[1,2,4]triazolo[1,5-a]pyrimidin-7-amine] | > 20 µM |  | 50 µM | 169 to 170 °C |  |
| FC(F)(F)c1ccc(CCNc2cc(-c3ccccc3)nc3ncnn23)cc1 [Compound 47, 5-Phenyl-N-(4-(trifluoromethyl)phenethyl)-[1,2,4]triazolo[1,5-a]pyrimidin-7-amine] | 2.7 ± 0.7 µM (≈ 1.04 µg/mL) | >38 | > 100 µM | 183 to 184 °C |  |
| COc1ccc(CC(=O)Nc2cc(-c3ccccc3)nc3ncnn23)cc1 [Compound 49, 2-(4-Methoxyphenyl)-N-(5-phenyl-[1,2,4]triazolo[1,5-a]pyrimidin-7-yl)acetamide] | 1.5 ± 0.7 µM (≈ 0.539 µg/mL) | >73 | > 100 µM |  | % turnover by liver microsomes in 30 min, Mouse [7]: 12% and 12.5%; % turnover by liver microsomes in 30 min, Rat [8]: 22% and 21.8%; % turnover by liver microsomes in 30 min, Human [9]: 31% and 30.6%; Cmax [11]: 62.8 nM; PO AUC [11]: 0.187 µM·h; PO Tmax [11]: 1.5 h; MIC99 (M. tuberculosis H37Rv [2]; [13]): 3.1 µM (≈ 1.11 µg/mL); MIC99 (M. tuberculosis H37Rv [2]): < 20 µM; MIC99 [3]: > 10 µM; MIC99 (Escherichia coli DH5α): > 10 µM; MIC99 [4]: > 10 µM; MIC99 [5]: > 10 µM; Kill of non-replicating M. tuberculosis (M. tuberculosis): 2–3 log; Activity against replicating M. tuberculosis (kill kinetics) (M. tuberculosis): static activity; MIC99 S. cerevisiae [6]: >10 µM |
| COc1ccc(CC(=O)Nc2cc(-c3ccccc3)nc3ncnn23)cc1OC [Compound 50, 2-(3,4-Dimethoxyphenyl)-N-(5-phenyl-[1,2,4]triazolo[1,5-a]pyrimidin-7-yl)acetamide] | 10 ± 1.1 µM (≈ 3.89 µg/mL) | >10 | > 100 µM | 202 to 204 °C |  |
| c1ccc(CCNc2cc(-c3ccccn3)nc3ncnn23)cc1 [Compound 51, N-Phenethyl-5-(pyridin-2-yl)-[1,2,4]triazolo[1,5-a]pyrimidin-7-amine] | 2.4 ± 1.3 µM (≈ 0.759 µg/mL) | >46 | > 100 µM | 214 to 215 °C |  |
| c1ccc(CCNc2cc(-c3ccccn3)nc3ncnn23)nc1 [Compound 52, 5-(Pyridin-2-yl)-N-(2-(pyridin-2-yl)ethyl)-[1,2,4]triazolo[1,5-a]pyrimidin-7-amine] | > 20 µM |  | > 100 µM | 156 to 157 °C |  |
| c1ccc(-c2cc(NCCc3cccnc3)n3ncnc3n2)nc1 [Compound 53, 5-(Pyridin-2-yl)-N-(2-(pyridin-3-yl)ethyl)-[1,2,4]triazolo[1,5-a]pyrimidin-7-amine] | > 20 µM |  | > 100 µM | 212 to 213 °C |  |
| c1ccc(-c2cc(NCCc3ccncc3)n3ncnc3n2)nc1 [Compound 54, 5-(Pyridin-2-yl)-N-(2-(pyridin-4-yl)ethyl)-[1,2,4]triazolo[1,5-a]pyrimidin-7-amine] | > 20 µM |  | > 100 µM | 201 to 202 °C |  |
| Cc1ccc(CCNc2cc(-c3ccccn3)nc3ncnn23)cc1 [Compound 55, N-(4-Methylphenethyl)-5-(pyridin-2-yl)-[1,2,4]triazolo[1,5-a]pyrimidin-7-amine] | 0.52 ± 0.1 µM (≈ 0.172 µg/mL) | >196 | > 100 µM | 194 to 196 °C |  |
| CCc1ccc(CCNc2cc(-c3ccccn3)nc3ncnn23)cc1 [Compound 56, N-(4-Ethylphenethyl)-5-(pyridin-2-yl)-[1,2,4]triazolo[1,5-a]pyrimidin-7-amine] | 0.2 ± 0.02 µM (≈ 0.0689 µg/mL) | 220 | 44 µM | 154 to 155 °C |  |
| Fc1ccc(CCNc2cc(-c3ccccn3)nc3ncnn23)cc1 [Compound 57, N-(4-Fluorophenethyl)-5-(pyridin-2-yl)-[1,2,4]triazolo[1,5-a]pyrimidin-7-amine] | 4.8 ± 1.3 µM (≈ 1.6 µg/mL) | 17 | 81 µM | 190 to 192 °C |  |
| FC(F)(F)Oc1ccc(CCNc2cc(-c3ccccn3)nc3ncnn23)cc1 [Compound 59, 5-(Pyridin-2-yl)-N-(4-(trifluoromethoxy)phenethyl)-[1,2,4]triazolo[1,5-a]pyrimidin-7-amine] | 1.6 ± 1.1 µM (≈ 0.641 µg/mL) | >72 | > 100 µM | 163 to 165 °C |  |
| COc1ccc(CCN(C)c2cc(-c3ccccc3)nc3ncnn23)cc1 [Compound 61, N-(4-Methoxyphenethyl)-N-methyl-5-phenyl-[1,2,4]triazolo[1,5-a]pyrimidin-7-amine] | > 20 µM |  | 17 µM | 170 to 171 °C |  |
| COc1ccc(C2CCN(c3cc(-c4ccccn4)nc4ncnn34)C2)cc1 (stereo not shown) [Compound 62, 7-(3-(4-Methoxyphenyl)pyrrolidin-1-yl)-5-(pyridin-2-yl)-[1,2,4]triazolo[1,5-a]pyrimidine] | > 20 µM |  | 23 µM | 222 to 223 °C |  |
| COc1ccc(CCNc2cc(-c3ccccn3)nc3nc(C)nn23)cc1 [Compound 67, N-(4-Methoxyphenethyl)-2-methyl-5-(pyridin-2-yl)-[1,2,4]triazolo[1,5-a]pyrimidin-7-amine] | 3.9 ± 0.21 µM (≈ 1.41 µg/mL) | >26 | > 100 µM | 139 to 141 °C |  |
| COc1ccc(CCNc2cc(-c3ccccn3)nc3nc(-c4ccccc4)nn23)cc1 [Compound 68, N-(4-Methoxyphenethyl)-2-phenyl-5-(pyridin-2-yl)-[1,2,4]triazolo[1,5-a]pyrimidin-7-amine] | > 20 µM |  | > 100 µM | 146 to 148 °C | MIC90 (M. tuberculosis H37Rv [1]): >20 µM |
| COc1ccc(CCNc2cc(-c3ccccn3)nc3ccnn23)cc1 [Compound 69, N-(4-Methoxyphenethyl)-5-(pyridin-2-yl)pyrazolo[1,5-a]pyrimidin-7-amine] | 2.5 ± 0.15 µM (≈ 0.864 µg/mL) | 9 | 23 µM | 116 to 117 °C |  |
| COc1ccc(CCNc2cc(-c3ccccn3)nc3nccn23)cc1 [Compound 70, N-(4-Methoxyphenethyl)-7-(pyridin-2-yl)imidazo[1,2-a]pyrimidin-5-amine] | 0.22 ± 0.07 µM (≈ 0.076 µg/mL) | 142 | 30 µM | 234 to 235 °C |  |

Source: paper PMC5513444, “The synthesis and evaluation of triazolopyrimidines as anti-tubercular agents” (Bioorganic & Medicinal Chemistry, 2017)
